These are literature values, as cited in patent US20200129574A1 (priority 2018, published 2020).

The test system of one data set is prostate cancer cells. The conditions noted are these: in vitro.
The test system of data set [1] is several tumor cell types, including prostate cancer cell lines, and primary prostate tumor lines. The conditions noted are these: several tumor cell types incl. prostate cancer cell lines and primary prostate tumor lines.

In the case of Vitamin D, the “expression of a6 and 134 integrins” value in the data set on a6 and 134 integrins is “decreased expression”. In the data set with prostate cancer cells, the “effect on invasion of prostate cancer cells” value was “decrease invasion”. Also, the “effect on proliferation and differentiation of tumor cells” value in data set [1] is “inhibit proliferation and promote differentiation”.
